Patent publication US20230270809A1, “VETERINARY COMPOSITIONS FOR THE TREATMENT AND/OR PREVENTION OF PROTOZOAN DISEASES AND METHODS OF PREPARATION THEREOF” (ADIFEED SP. Z O. O., priority 2020, published 2023)

Key:
[1] = system: Gregarina blattarum; assay: in vitro protozoicidal test on gregarines isolated from cockroaches; assay type: cell-based; settings: Ringer's solution; for LD100: lethal concentration for 100% of individuals within 3 minutes
Excerpt: For in vitro tests of antiprotozoal activity of the composition five reference organisms representing taxonomic groups to which pathogenic protozoa belong were selected, i.e: • Amoeba proteus—Chaos diffluens—a protozoan of the order Euamoebida, belonging to fifth supergroup of the Amoebozoa, living in waters. • Paramecium caudatum—a slipper animalcule representing the Ciliata orachs, living in waters. • Gregarina blattarum—gregarine isolated from cockroaches, representing the phylum Apicomplexa, living in the digestive tracts or body cavities of invertebrates. • Euglena gracilis—a protozoan living in water, representing the flagellates—Mastigophora, family Euglenaceae. • Trichomonas hominis—a protozoan living in the human colon, representing the Trichomonadidae.
The gregarines were isolated from the cockroaches and, after being placed on a watch slide, were treated with the products at different concentrations in Ringer's solution. Each sample contained ten individuals.
The compositions, negative controls, and positive controls were dissolved in an aqueous solution of polysorbate 80 (0.05%) before application to a watch slide.
Compositions I and II were then analysed for their antiprotozoal properties. […]
Individual acids, catalyst solution, essential oil and metal salt solutions were also analysed for protozoal properties. […] Observation under a fluorescence microscope with phase contrast was carried out.

[2] = system: Trichomonas hominis; assay: in vitro protozoicidal test on Trichomonas hominis (watch glass, microscope); assay type: cell-based; settings: in aqueous polysorbate 80 (0.05%); for LD100: concentration giving death of 100% of individuals within 3 minutes
[3] = system: Amoeba proteus; assay: in vitro protozoicidal test on Amoeba proteus (watch glass, microscope); assay type: cell-based; settings: in aqueous polysorbate 80 (0.05%); for LD100: concentration giving death of 100% of individuals within 3 minutes
[4] = system: Trypanosoma cruzi; settings: read-out: inhibitory effect on 50% of the population (IC50), Becco et al. 2012; cited from earlier work
[5] = system: Trypanosoma cruzi and Leishmania chagasi; settings: Escobar et al. 2010; cited from earlier work
[6] = system: Paramecium caudatum; assay: in vitro protozoicidal test on Paramecium caudatum (watch glass, microscope); assay type: cell-based; settings: concentration giving death of 100% of individuals within 3 minutes, in aqueous polysorbate 80 (0.05%)
[7] = system: Euglena gracilis; assay: in vitro protozoicidal test on Euglena gracilis (watch glass, microscope); assay type: cell-based; settings: concentration giving death of 100% of individuals within 3 minutes, in aqueous polysorbate 80 (0.05%)
[8] = concentration giving death of 50% of individuals within 3 minutes

Cc1ncc([N+](=O)[O-])n1CCO [M, metronidazole, reference compound]
LD50 ([1]; lethal concentration for 50% of individuals within 3 minutes): 0.13% | LD100 [1]: 0.3% | LD50 [2, 8]: 0.05% | LD100 [2]: 0.1% | LD50 [3, 8]: 0.3% | LD100 [3]: 0.5%

CC1CS(=O)(=O)CCN1/N=C/c1ccc([N+](=O)[O-])o1 (stereo not shown) [Nifurtimox]
IC50 [4]: 6 µM | IC50 [5]: 0.3 to 0.4 µg/mL

copper carbonate [Copper carbonate solution]
LD100 [6]: 0.5% | LD100 [7]: 0.25% | LD100 [2]: 0.3%

zinc carbonate [Zinc carbonate solution]
LD100 [6]: 0.5% | LD100 [1]: 0.4% | LD100 [7]: 0.3% | LD100 [2]: 0.4% | LD100 [3]: 0.25%
